ChEMBL document CHEMBL3045769, “Strategy for generation of new TACE inhibitors: pharmacophore and counter pharmacophore modeling to remove non-selective hits” (Med Chem Res, 2011)

Target: Disintegrin and metalloproteinase domain-containing protein 17 (Homo sapiens, UniProt P78536)
Test: Inhibition of TACE (unknown origin) using fluorogenic LAQAVRSSSR peptide as a substrate by fluorometric assay

Chain of Disintegrin and metalloproteinase domain-containing protein 17 (P78536 whole entry, the tested form may be a part): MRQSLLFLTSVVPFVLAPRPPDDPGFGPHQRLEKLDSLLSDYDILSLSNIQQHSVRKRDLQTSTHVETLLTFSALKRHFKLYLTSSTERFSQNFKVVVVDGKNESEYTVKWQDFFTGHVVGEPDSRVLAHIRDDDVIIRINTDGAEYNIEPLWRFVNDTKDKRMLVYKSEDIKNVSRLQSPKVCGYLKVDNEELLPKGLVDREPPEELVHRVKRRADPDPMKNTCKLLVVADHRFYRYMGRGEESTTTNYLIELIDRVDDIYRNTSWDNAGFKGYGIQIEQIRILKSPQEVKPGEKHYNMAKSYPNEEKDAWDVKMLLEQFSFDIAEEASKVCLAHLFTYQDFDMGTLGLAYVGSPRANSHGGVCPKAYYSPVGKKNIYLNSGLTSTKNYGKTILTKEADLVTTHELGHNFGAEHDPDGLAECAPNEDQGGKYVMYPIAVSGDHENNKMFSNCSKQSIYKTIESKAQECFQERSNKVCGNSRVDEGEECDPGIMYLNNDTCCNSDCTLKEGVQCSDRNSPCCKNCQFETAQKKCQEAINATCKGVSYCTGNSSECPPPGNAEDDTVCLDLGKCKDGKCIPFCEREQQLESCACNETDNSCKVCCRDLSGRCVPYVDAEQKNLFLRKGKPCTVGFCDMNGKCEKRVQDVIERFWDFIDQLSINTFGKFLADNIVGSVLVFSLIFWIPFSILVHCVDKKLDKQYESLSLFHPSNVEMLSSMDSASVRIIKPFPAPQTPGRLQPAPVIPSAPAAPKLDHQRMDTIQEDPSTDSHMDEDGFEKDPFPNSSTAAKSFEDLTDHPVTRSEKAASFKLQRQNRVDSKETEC

SMILES | IC50
CC#CCOc1ccc(S(=O)(=O)NC(C)C(=O)NO)cc1 (configuration not stated) | 4 nM
CNC(=O)[C@H](Cc1cccc2c1CCCC2)NC(=O)[C@H](CC(C)C)[C@H](C)C(=O)NO | 0.3 nM
